Data set [1] addresses Kappa-type opioid receptor (Homo sapiens, UniProt P41145). Description: DRUGMATRIX: Opiate kappa (OP2, KOP) radioligand binding (ligand: [3H] Diprenorphine). It is filed as cell membranes, HEK293, Membrane. The conditions noted are these: Not Active = under 50% inhibition at 10 µM.
A further data set deals with Cytochrome P450 2C9 (Homo sapiens, UniProt P11712). The conditions noted are these: bti-tn-5b1-4.
A further data set deals with T1, Adenosine receptor A1 (Homo sapiens, UniProt P30542).
T1 sequence (P30542 whole entry): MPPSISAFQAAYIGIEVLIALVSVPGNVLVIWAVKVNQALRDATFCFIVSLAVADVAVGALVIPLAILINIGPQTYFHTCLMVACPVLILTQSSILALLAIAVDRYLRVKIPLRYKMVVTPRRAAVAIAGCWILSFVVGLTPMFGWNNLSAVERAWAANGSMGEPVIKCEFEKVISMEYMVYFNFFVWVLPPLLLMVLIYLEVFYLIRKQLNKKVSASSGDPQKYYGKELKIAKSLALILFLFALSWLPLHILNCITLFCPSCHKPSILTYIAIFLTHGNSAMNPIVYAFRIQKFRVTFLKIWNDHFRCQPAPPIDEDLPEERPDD
It is filed as cell membranes, CHO, Membrane. The conditions noted are these: cho.

Data set [2] is described as follows: DRUGMATRIX: Sigma2 radioligand binding (ligand: [3H] Ifenprodil). The conditions noted are these: Not Active = under 50% inhibition at 10 µM. It is filed as cell membranes, Rattus norvegicus, Wistar, Brain, Membrane.
Data set [3] deals with 5-hydroxytryptamine receptor 2B (Homo sapiens, UniProt P41595). It is filed as cell membranes, CHO-K1, Membrane. Particulars: for Ki: read-out: Ki.
Sequence of 5-hydroxytryptamine receptor 2B (P41595 whole entry): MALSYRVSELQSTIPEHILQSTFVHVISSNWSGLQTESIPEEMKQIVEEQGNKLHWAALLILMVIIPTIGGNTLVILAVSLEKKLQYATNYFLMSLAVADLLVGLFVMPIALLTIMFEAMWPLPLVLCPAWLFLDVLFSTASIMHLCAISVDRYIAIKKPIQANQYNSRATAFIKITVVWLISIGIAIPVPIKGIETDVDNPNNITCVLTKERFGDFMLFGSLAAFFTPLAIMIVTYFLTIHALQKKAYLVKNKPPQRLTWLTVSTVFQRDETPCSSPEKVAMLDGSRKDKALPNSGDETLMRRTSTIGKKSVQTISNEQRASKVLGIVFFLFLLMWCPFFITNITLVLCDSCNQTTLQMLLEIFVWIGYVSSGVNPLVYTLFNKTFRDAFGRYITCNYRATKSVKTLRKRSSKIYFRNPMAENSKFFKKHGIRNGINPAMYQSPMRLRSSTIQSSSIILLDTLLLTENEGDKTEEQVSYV
The nature of data set [4]: DRUGMATRIX: Glutamate, Kainate radioligand binding (ligand: [3H] Kainic acid). It is filed as cell membranes, Rattus norvegicus, Wistar, Brain, Membrane. Particulars: Not Active = under 50% inhibition at 10 µM.

Structures are written as SMILES.

Sequence of Cytochrome P450 2C9 (P11712 whole entry): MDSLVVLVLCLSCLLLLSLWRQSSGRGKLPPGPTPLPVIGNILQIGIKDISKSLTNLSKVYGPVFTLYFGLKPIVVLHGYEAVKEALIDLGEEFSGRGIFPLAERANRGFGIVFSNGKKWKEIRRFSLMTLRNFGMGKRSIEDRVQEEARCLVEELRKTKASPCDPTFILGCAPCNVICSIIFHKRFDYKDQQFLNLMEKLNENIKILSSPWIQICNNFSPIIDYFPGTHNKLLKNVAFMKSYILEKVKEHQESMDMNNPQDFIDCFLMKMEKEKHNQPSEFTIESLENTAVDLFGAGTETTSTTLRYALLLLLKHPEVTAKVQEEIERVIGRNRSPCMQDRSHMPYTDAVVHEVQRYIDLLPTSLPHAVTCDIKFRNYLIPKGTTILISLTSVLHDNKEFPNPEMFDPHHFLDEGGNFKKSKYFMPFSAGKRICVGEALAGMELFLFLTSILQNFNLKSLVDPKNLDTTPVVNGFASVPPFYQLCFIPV
Sequence of Kappa-type opioid receptor (P41145 whole entry): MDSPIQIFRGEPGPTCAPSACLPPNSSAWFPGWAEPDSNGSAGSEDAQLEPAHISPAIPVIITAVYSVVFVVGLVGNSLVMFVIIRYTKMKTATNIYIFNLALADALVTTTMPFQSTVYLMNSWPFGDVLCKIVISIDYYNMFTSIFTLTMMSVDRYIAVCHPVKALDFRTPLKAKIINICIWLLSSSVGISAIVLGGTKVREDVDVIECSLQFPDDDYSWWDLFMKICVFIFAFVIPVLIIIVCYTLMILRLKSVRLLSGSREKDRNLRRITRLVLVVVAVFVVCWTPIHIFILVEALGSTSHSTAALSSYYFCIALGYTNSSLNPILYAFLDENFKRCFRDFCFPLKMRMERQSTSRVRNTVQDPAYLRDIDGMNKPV

As usually defined, the IC50 is the midpoint of a concentration-inhibition curve. A word on the Ki: it is the equilibrium dissociation constant of an inhibitor or competing ligand from its target. In the case of `O=C(O)CCCc1cccs1`, the IC50 result (in data set [1] (hek293); against Cytochrome P450 2C9; on Adenosine receptor A1; in data set [2]; in data set [3] (cho-k1); in data set [4]) was “Not Active” each time. In addition, the inhibition constant (Ki) result (on Cytochrome P450 2C9; in data set [2]; in data set [4]) was “Not Active” in each case.
On to `COc1ccccc1N`, for which the IC50 result (in data set [1] (hek293); against Cytochrome P450 2C9; against Adenosine receptor A1; in data set [2]; in data set [3] (cho-k1); in data set [4]) was “Not Active” each time. For the same compound, the inhibitory constant (Ki) result (at Cytochrome P450 2C9; in data set [2]; in data set [4]) was “Not Active” each time.
With `O=C(c1ccccc1F)N1CCC(Cc2ccccc2)CC1`, the IC50 result (in data set [1] (hek293); against Adenosine receptor A1; in data set [2]; in data set [3] (cho-k1); in data set [4]) was “Not Active” in each case. Also, the Ki result in data set [2] and in data set [4] was “Not Active” throughout.
Turning to `Cc1c(O)cccc1C(=O)N[C@@H](CSc1ccccc1)[C@H](O)CN1C[C@H]2CCCC[C@H]2C[C@H]1C(=O)NC(C)(C)C`, the Ki in data set [1] is 14400 nM; at Cytochrome P450 2C9, “Not Active”; in data set [2], “Not Active”; in data set [4], “Not Active”. Besides, the IC50 in data set [1] (read-out: IC50) was 36000 nM; on Cytochrome P450 2C9, “Not Active”; on Adenosine receptor A1, “Not Active”; in data set [2], “Not Active”; in data set [3] (cho-k1) it was “Not Active”; in data set [4], “Not Active”.
As to `CC(O)COC[C@H]1O[C@@H]2O[C@H]3[C@H](O)[C@@H](O)[C@@H](O[C@H]4[C@H](O)[C@@H](O)[C@@H](O[C@H]5[C@H](O)[C@@H](O)[C@@H](O[C@H]6[C@H](O)[C@@H](O)[C@@H](O[C@H]7[C@H](O)[C@@H](O)[C@@H](O[C@H]8[C@H](O)[C@@H](O)[C@@H](O[C@H]1[C@H](O)[C@H]2O)O[C@@H]8COCC(C)O)O[C@@H]7COCC(C)O)O[C@@H]6COCC(C)O)O[C@@H]5COCC(C)O)O[C@@H]4COCC(C)O)O[C@@H]3COCC(C)O` (stereo partly drawn) [2-HYDROXYPROPYL-BETA-CYCLODEXTRIN], the concentration for half-maximal inhibition (IC50) entry is “Not Active” in data set [1] (hek293); “Not Active” on Cytochrome P450 2C9; “Not Active” against Adenosine receptor A1; “Not Active” in data set [2]; 63 nM in data set [3] (read-out: IC50); “Not Active” in data set [4]. Also, the Ki result on Cytochrome P450 2C9 was “Not Active”; in data set [2] it was “Not Active”; in data set [3], 40 nM; in data set [4], “Not Active”.
Regarding `NC(=O)c1cccc(N)c1` [3-AMINOBENZAMIDE], the IC50 entry (in data set [1] (hek293); against Cytochrome P450 2C9; against Adenosine receptor A1; in data set [2]; in data set [3] (cho-k1); in data set [4]) was “Not Active” in each case. Further, the Ki result (on Cytochrome P450 2C9; in data set [2]; in data set [4]) was “Not Active” in each case.
As for `C[C@H]1O[C@H](O[C@H]2[C@H](O)[C@@H](O)[C@@H](O[C@H]3[C@H](O)[C@@H](O)C(O)O[C@@H]3CO)O[C@@H]2CO)[C@H](O)[C@@H](O)[C@@H]1N[C@H]1C=C(CO)[C@@H](O)[C@H](O)[C@H]1O` (stereo partly drawn) [ACARBOSE], the IC50 result (in data set [1] (hek293); at Cytochrome P450 2C9; on Adenosine receptor A1; in data set [2]; in data set [3] (cho-k1); in data set [4]) was “Not Active” each time. The inhibition constant (Ki) result (on Cytochrome P450 2C9; in data set [2]; in data set [4]) was “Not Active” in each case.
Take `CC[C@H]1[C@@H]2C[C@H]3[C@@H]4N(C)c5ccccc5[C@]45C[C@@H]([C@@H]2[C@H]5O)N3[C@@H]1O` [AJMALINE]: the half-maximal inhibitory concentration (IC50) entry (in data set [1] (hek293); against Cytochrome P450 2C9; on Adenosine receptor A1; in data set [2]; in data set [3] (cho-k1); in data set [4]) was “Not Active” in each case. Besides, the inhibition constant Ki result (on Cytochrome P450 2C9; in data set [2]; in data set [4]) was “Not Active” each time.
With `NC12CC3CC(CC(C3)C1)C2` [AMANTADINE], the IC50 entry (in data set [1] (hek293); against Adenosine receptor A1; in data set [2]; in data set [3] (cho-k1); in data set [4]) was “Not Active” throughout. Moreover, the Ki result in data set [2] and in data set [4] was “Not Active” in each case.
Consider `NCCCNCCSP(=O)(O)O` [AMIFOSTINE], for which the concentration for half-maximal inhibition (IC50) entry (in data set [1] (hek293); against Cytochrome P450 2C9; at Adenosine receptor A1; in data set [2]; in data set [3] (cho-k1); in data set [4]) was “Not Active” each time. Moreover, the Ki result (on Cytochrome P450 2C9; in data set [2]; in data set [4]) was “Not Active” throughout.
In the case of `CC(=O)Oc1ccccc1C(=O)O` [ASPIRIN], the IC50 entry (in data set [1] (hek293); against Cytochrome P450 2C9; against Adenosine receptor A1; in data set [2]; in data set [3] (cho-k1); in data set [4]) was “Not Active” in each case. Moreover, the Ki result (on Cytochrome P450 2C9; in data set [2]; in data set [4]) was “Not Active” throughout.
On to `CC(C)c1c(C(=O)Nc2ccccc2)c(-c2ccccc2)c(-c2ccc(F)cc2)n1CC[C@@H](O)C[C@@H](O)CC(=O)O` [ATORVASTATIN], for which the IC50 entry (in data set [1] (hek293); against Adenosine receptor A1; in data set [2]; in data set [3] (cho-k1); in data set [4]) was “Not Active” in each case. In addition, the Ki entry in data set [2] and in data set [4] was “Not Active” throughout.
Regarding `CC(C)C[C@H]1C(=O)N2CCC[C@H]2[C@]2(O)O[C@](NC(=O)[C@@H]3C=C4c5cccc6[nH]cc(c56)C[C@H]4N(C)C3)(C(C)C)C(=O)N12` [ERGOCRYPTINE], the IC50 result in data set [1] (hek293) is “Not Active”; on Adenosine receptor A1, “Not Active”; in data set [2], “Not Active”; in data set [3] (read-out: IC50), 13 nM; in data set [4] it was “Not Active”. In addition, the Ki result in data set [2] is “Not Active”; in data set [3], 8.22 nM; in data set [4], “Not Active”.
As to `CC(C)(C(=O)O)c1ccc(C(O)CCCN2CCC(C(O)(c3ccccc3)c3ccccc3)CC2)cc1` (stereo not drawn) [FEXOFENADINE], the IC50 result (in data set [1] (hek293); against Adenosine receptor A1; in data set [2]; in data set [3] (cho-k1); in data set [4]) was “Not Active” in each case. Further, the Ki result in data set [2] and in data set [4] was “Not Active” in each case.
`CC(=O)OCC(=O)[C@@]12OC(C)(C)O[C@@H]1C[C@H]1[C@@H]3C[C@H](F)C4=CC(=O)C=C[C@]4(C)[C@@]3(F)[C@@H](O)C[C@@]12C` [FLUOCINONIDE]: the IC50 result (in data set [1] (hek293); against Adenosine receptor A1; in data set [2]; in data set [3] (cho-k1); in data set [4]) was “Not Active” throughout. Besides, the Ki result in data set [2] and in data set [4] was “Not Active” in each case.
Consider `CCC1=C(C)CN(C(=O)NCCc2ccc(S(=O)(=O)NC(=O)N[C@H]3CC[C@H](C)CC3)cc2)C1=O` [GLIMEPIRIDE], for which the half-inhibitory concentration (IC50) result (in data set [1] (hek293); at Adenosine receptor A1; in data set [2]; in data set [3] (cho-k1); in data set [4]) was “Not Active” throughout. The Ki result in data set [2] and in data set [4] was “Not Active” throughout.
As to `N[C@@H](Cn1ccc(=O)c(O)c1)C(=O)O` [L-MIMOSINE], the IC50 result (in data set [1] (hek293); against Adenosine receptor A1; in data set [2]; in data set [3] (cho-k1); in data set [4]) was “Not Active” in each case. Besides, the Ki entry in data set [2] and in data set [4] was “Not Active” each time.
With `CC(C)(C)NCC(O)COc1cccc2c1CC(O)C(O)C2` (stereo not drawn) [NADOLOL], the IC50 entry (in data set [1] (hek293); against Adenosine receptor A1; in data set [2]; in data set [3] (cho-k1); in data set [4]) was “Not Active” each time. The Ki entry in data set [2] and in data set [4] was “Not Active” throughout.
Consider `C[C@@H]1C/C=C/C=C/C=C/C=C/[C@H](O[C@@H]2O[C@H](C)[C@@H](O)[C@H](N)[C@@H]2O)C[C@@H]2O[C@](O)(C[C@@H](O)C[C@H]3O[C@@H]3/C=C/C(=O)O1)C[C@H](O)[C@H]2C(=O)O` [NATAMYCIN], for which the IC50 result (in data set [1] (hek293); against Adenosine receptor A1; in data set [2]; in data set [3] (cho-k1); in data set [4]) was “Not Active” in each case. For the same compound, the Ki entry in data set [2] and in data set [4] was “Not Active” in each case.
Turning to `COc1ccc2c(c1OC)C(=O)O[C@@H]2[C@H]1c2c(cc3c(c2OC)OCO3)CCN1C` [NOSCAPINE], the half-maximal inhibitory concentration (IC50) entry (in data set [1] (hek293); on Adenosine receptor A1; in data set [2]; in data set [3] (cho-k1); in data set [4]) was “Not Active” each time. Further, the inhibitory constant (Ki) entry in data set [2] and in data set [4] was “Not Active” throughout.
`N=C(N)c1ccc(OCCCCCOc2ccc(C(=N)N)cc2)cc1` [PENTAMIDINE]: the half-inhibitory concentration (IC50) result (in data set [1] (hek293); on Adenosine receptor A1; in data set [2]; in data set [3] (cho-k1); in data set [4]) was “Not Active” each time. For the same compound, the Ki result in data set [2] and in data set [4] was “Not Active” in each case.

Source of the values: ChEMBL document CHEMBL1909046, “DrugMatrix in vitro pharmacology data”.
